Measured values as given in patent US6410564B1, “Naphthyl compounds, intermediates, processes, compositions, and methods” (Eli Lilly and Company, priority 1994, dated 2002).
Like-named read-outs stand apart in the source and are kept apart here.

Assays:
[1] = system: ovariectomized (OVX) female Sprague Dawley rats; assay: Serum cholesterol in OVX rats, 4-day dosing; format: in vivo, rat
Description: (§1) Seventy-five day old female Sprague Dawley rats (weight range of 200 to 225 g) were obtained from Charles River Laboratories (Portage, Mich.). The animals were either bilaterally ovariectomized (OVX) or exposed to a Sham surgical procedure at Charles River Laboratories, and then shipped after one week. Upon arrival, they were housed in metal hanging cages in groups of 3 or 4 per cage and had ad libitum access to food (calcium content approximately 0.5%) and water for one week. Room temperature was maintained at 22.2°±1.7° C. with a minimum relative humidity of 40%. The photoperiod in the room was 12 hours light and 12 hours dark.
(§2) Dosing Regimen Tissue Collection. After a one week acclimation period (therefore, two weeks post-OVX) daily dosing with test compound was initiated. 17α-ethynyl estradiol or the test compound were given orally, unless otherwise stated, as a suspension in 1% carboxymethylcellulose or dissolved in 20% cyclodextrin. Animals were dosed daily for 4 days. Following the dosing regimen, animals were weighed and anesthetized with a ketamine: Xylazie (2:1, V:V) mixture and a blood sample was collected by cardiac puncture. The animals were then sacrificed by asphyxiation with CO2, the uterus was removed through a midline incision, and a wet uterine weight was determined.
Cholesterol Analysis. Blood samples were allowed to clot at room temperature for 2 hours, and serum was obtained following centrifugation for 10 minutes at 3000 rpm. Serum cholesterol was determined using a Boehringer Mannheim Diagnostics high performance cholesterol assay. Briefly the cholesterol was oxidized to cholest-4-en-3-one and hydrogen peroxide. The hydrogen peroxide was then reacted with phenol and 4-aminophenazone in the pressure of peroxidase to produce a p-quinone imine dye, which was read spectrophotemetrically at 500 nm. Cholesterol concentration was then calculated against a standard curve. The entire assay was automated using a Biomek Automated Workstation.
(§3) Data presented in Table 1 below show comparative results among ovariectomized rats, rats treated with 17α-ethynyl estradiol (EE2; an orally available form of estrogen), and rats treated with certain compounds of the present invention. […] This uterine response to estrogen is well recognized in the art.
(§4) The data presented in the Tables 1 below reflects the response of 5 to 6 rats per treatment.

[2] = system: ovariectomized (OVX) female Sprague Dawley rats; details: rat, in vivo, po, 4 days
Description: In the examples illustrating the methods, a post-menopausal model was used in which effects of different treatments upon circulating lipids were determined.
as §1, §2, §3, §4

[3] = system: Uterine Eosinophil Peroxidase (EPO); details: rat, in vivo; for Uterine EPO (V. max): po
Description: as §1, §2
Uterine Eosinophil Peroxidase (EPO) Assay. Uteri were kept at 4° C. until time of enzymatic analysis. The uteri were then homogenized in 50 volumes of 50 mM Tris Buffer (pH −8.0) containing 0.005% Triton X-100. Upon addition of 0.01% hydrogen peroxide and 10 mM O-phenylenediamine (final concentrations) in Tris buffer, increase in absorbance was monitored for one minute at 450 nm. The presence of eosonophils in the uterus is an indication of estrogenic activity of a compound. The maximal velocity of a 15 second interval was determined over the initial, linear portion of the reaction curve.
As is expressed in the below data, estrogenicity also was assessed by evaluating the adverse response to eosinophil infiltration into the uterus.
as §4

[4] = system: ovariectomized (OVX) female Sprague Dawley rats; assay: Osteoporosis Test Procedure: distal femur metaphysis X-ray image analysis, OVX rats, 35 days; format: in vivo, rat; details: for Distal Femur Metaphysis (X-ray Image Analysis-Gray Score): 0.1 mg/kg, mean ± SEM
Description: as §1
Following the General Preparation Procedure, infra, the rats were treated daily for 35 days (6 rats per treatment group) and sacrificed by carbon dioxide asphyxiation on the 36th day. The 35 day time period was sufficient to allow maximal reduction in bone density, measured as described herein. At the time of sacrifice, the uteri were removed, dissected free of extraneous tissue, and the fluid contents were expelled before determination of wet weight in order to confirm estrogen deficiency associated with complete ovariectomy. […] The uteri were then placed in 10% neutral buffered formalin to allow for subsequent histological analysis.
The right femurs were excised and digitilized x-rays generated and analyzed by an image analysis program (NIH image) at the distal metaphysis. The proximal aspect of the tibiae from these animals were also scanned by quantitative computed tomography.
In accordance with the above procedures, compounds of the present invention and ethynyl estradiol (EE2) in 20% hydroxypropyl β-cyclodextrin were orally administered to test animals. Distal femur metaphysis data presented in Tables 2 and 3 below are the results of formula I compound treatments compared to intact and ovariectomized test animals. Results are reported as the mean ± the standard error of the mean.

[5] = Rattus norvegicus, po, 96 h, oral daily for 4 days, dose 0.1 mg/kg, read-out: Serum Cholesterol (% decrease vs. OVX)
[6] = Rattus norvegicus, po, 96 h, oral daily for 4 days, read-out: Serum Cholesterol (% decrease vs. OVX)
[7] = female, Sprague Dawley, 0.1 mg/kg, 4 days
[8] = female, Sprague Dawley, 1 mg/kg, 4 days
[9] = female, Sprague Dawley, 10 mg/kg, 4 days

Row | Uterine Weight (% increase vs. OVX) ([2]; 0.1 mg/kg) [%] | Uterine Weight (% increase vs. OVX) ([2]; 1 mg/kg) [%] | Uterine Weight (% increase vs. OVX) ([2]; 10 mg/kg) [%] | Uterine EPO (V. max) [3, 7] | Uterine EPO (V. max) [3, 8] | Uterine EPO (V. max) [3, 9] | Uterine EPO (V. max) ([3]; 0.1 mg/kg) | Uterine Weight (% increase vs. OVX) ([2]; 0.01 mg/kg) [%] | Uterine EPO (V. max) ([3]; female, Sprague Dawley, 0.01 mg/kg, 4 days) | SMILES | inhibition in vivo at 0.1 mg/kg [1, 5] [%] | inhibition in vivo at 1 mg/kg [1, 6] [%] | inhibition in vivo at 10 mg/kg [1, 6] [%] | Serum Cholesterol (% decrease vs. OVX) ([1]; oral daily for 4 days, dose 0.1 mg/kg) [%] | serum cholesterol compared to ovariectomized control animals (in words) ([1]; oral, 4 days, EE2 at 0.1 mg/kg/day) | Distal Femur Metaphysis (X-ray Image Analysis-Gray Score) ([4]; Table 2, oral daily 35 days in 20% cyclodextrin, OVX control 5.5 ± 0.6, Sham 30.5 ± 4.3) | Distal Femur Metaphysis (X-ray Image Analysis-Gray Score) ([4]; Table 3, oral daily 35 days in 20% cyclodextrin, OVX control 7.2 ± 2.2, Sham 44.7 ± 6.4) | bone loss / femur density after ovariectomy (in words) ([4]; oral, 35 days) | eosinophil infiltration into the uterus (number of eosinophils in the stromal layer, in words) [3] | inhibition in vivo at 0.01 mg/kg ([1]; Rattus norvegicus, po, 96 h, oral daily for 4 days, dose 0.01 mg/kg, read-out: Serum Cholesterol (% decrease vs. OVX)) [%]
1 |  |  |  |  |  |  |  |  |  | COc1ccc(-c2ccc3cc(OC)ccc3c2Cc2ccc(OCCN3CCCCCC3)cc2)cc1.Cl [Example 26, [2-(4-Methoxyphenyl)-6-methoxynaphthalen-1-yl][4-[2-(1-hexamethyleneiminyl)ethoxy]phenyl]methane hydrochloride] | 45.1 | 55.5 | 60.6 |  |  |  |  |  |  | 
2 | 50.5 | 55.4 | 69.7 | 9.3 | 39.3 | 34.8 |  |  |  | Oc1ccc(-c2ccc3cc(O)ccc3c2Cc2ccc(OCCN3CCOCC3)cc2)cc1 [Example 32] | 57.9 | 60.3 | 65.7 |  |  |  |  |  |  | 
3 | 43.2 | 16.0 | 25.3 | 3.4 | 4.3 | 2.6 |  |  |  | CCCCS(=O)(=O)Oc1ccc(-c2ccc3cc(OS(=O)(=O)CCCC)ccc3c2Cc2ccc(OCCN3CCCCC3)cc2)cc1 [Example 5, [2-(4-n-Butylsulfonyloxyphenyl)-6-n-butylsulfonyloxynaphthalen-1-yl][4-[2-(1-piperidinyl)ethoxy]phenyl]methane] | 6 | 62 | 46.2 |  |  |  |  |  |  | 
4 | 83.9 | 87.5 | 89.3 | 45.0 | 41.1 | 46.2 |  |  |  | CCN(CC)CCOc1ccc(Cc2c(-c3ccc(OC)cc3)ccc3cc(OC)ccc23)cc1.Cl [Example 22, [2-(4-Methoxyphenyl)-6-methoxynaphthalen-1-yl][4-[2-(1-N,N-diethylamino)ethoxy]phenyl]methane hydrochloride] | 72 | 60.5 | 68.7 |  |  |  |  |  |  | 
5 | 26.3 | 18.6 | 25.1 | 12.0 | 4.8 | 4.5 |  |  |  | Oc1ccc2c(Cc3ccc(OCCN4CCCC4)cc3)c(-c3ccccc3)ccc2c1 [Example 12] | 46.3 | 49.9 | 50.1 |  |  |  |  |  |  | 
6 |  |  |  |  |  |  | 116.4 |  |  | C#C[C@]1(O)CC[C@H]2[C@@H]3CCc4cc(O)ccc4[C@H]3CC[C@@]21C [EE2, 17α-ethynyl estradiol, reference compound] |  |  |  | 81.4 | caused a decrease in serum cholesterol | 32.8 ± 7.9 | 44.4 ± 4.8 | prevented this loss | substantial, expected increase in eosinophil infiltration | 
7 | 41.6 | 21.2 | 53.7 | 7.0 | 5.2 | 5.5 |  | 29.3 | 4.6 | COc1ccc(-c2ccc3ccccc3c2Cc2ccc(OCCN3CCCCC3)cc2)cc1.Cl [Example 15, [2-(4-Methoxyphenyl)-naphthalen-1-yl][4-[2-(1-piperdinyl)ethoxy]phenyl]methane hydrochloride] | 53.4 | 66 | 55.4 |  |  |  |  |  |  | 12.4
8 | 52.1 | 22.8 | 75.2 | 3.6 | 2.9 | 3.4 |  |  |  | CC(C)(C)C(=O)Oc1ccc(-c2ccc3cc(OC(=O)C(C)(C)C)ccc3c2Cc2ccc(OCCN3CCCCC3)cc2)cc1 [Example 4, [2-(4-Pivaloyloxyphenyl)-6-pivaloyloxynaphthalen-1-yl][4-[2-(1-piperidinyl)ethoxy]phenyl]methane] | 21.2 | 37.2 | 20.8 |  |  |  |  |  |  | 
9 | 40.8 | 79.0 | 63.0 | 12.9 | 55.2 | 73.5 |  |  |  | CC1(C)CCN(CCOc2ccc(Cc3c(-c4ccc(O)cc4)ccc4cc(O)ccc34)cc2)C1 [Example 33, [2-(4-Hydroxyphenyl)-6-hydroxynaphthalen-1-yl][4-[2-(1-(3,3-dimethyl)pyrrolidinyl)ethoxy]phenyl]methane] | 25.2 | 41.1 | 52.8 |  |  |  |  |  |  | 
10 | −12.4 | 1.0 | 7.1 | 0.9 | 5.4 | 4.5 |  |  |  | Oc1ccc(-c2ccc3cc(O)ccc3c2Cc2ccc(OCCN3CCCC3)cc2)cc1 [Example 19] | 4.5 | 19.7 | 40.9 |  |  |  |  |  |  | 
11 | 48.1 | 47.4 | 14.4 | 4.8 | 3.9 | 3.9 |  |  |  | Oc1ccc2c(Cc3ccc(OCCN4CCCCC4)cc3)c(-c3ccccc3)ccc2c1 [Example 11, [2-Phenyl-6-hydroxynaphthalen-1-yl][4-[2-(1-piperdinyl)ethoxy]phenyl]methane] | 60.2 | 73.5 | 72.4 |  |  |  |  |  |  | 
